Measured values published in patent publication US20200121807A1, “Anti-Cancer Agents” (UEA ENTERPRISES LIMITED, priority 2016, published 2020).
One block for each molecule: values may come before it.

Key:
[1] = Toxicity in PC-3 tumour-bearing NSG mice (body weight, liver weight, WCC); type: in vivo; settings: after 2 weeks of administration
Protocol: At Day 30 mice were sacrificed and liver weight measurements were performed. Liver weight was normalised to control group (healthy group no treatment). *: p<0.05 vs. control group (ANOVA). Data is expressed as Mean±SE (n=7).

[2] = in vivo; cited from earlier work
[3] = system: PC-3 metastatic prostate cancer cells; experiment: PC-3 prostate tumour xenograft, free agents, tumour weight; type: in vivo, Balb/c nude mice; settings: 5 mg/kg single agent, prostate tumours
Protocol: (§1) Tumour weight at week 5. Columns, mean of three experiments performed in triplicate. Bars, SE. * p<0.05 versus control.
(§2) Mice and tumours were weighed.
(§3) Data are presented as the mean values of at least three independent experiments normalised to control±standard error of the mean (SE) calculated using OriginPro. Statistical significance between two groups was conducted by unpaired Student's t test. p value of <0.05 is considered statistically significant.

SK1 = molecular target: T1, SK1 (Homo sapiens, UniProt Q9NYA1); experiment: SK1 activity by radiolabelling in PC-3 cells; type: cell-based; settings: PC-3 cells treated for 48 h
T1 construct: endogenous in cells; host or cells: PC-3 cells (obtained from DSMZ)
Protocol: (D) PC-3 cells were treated for 48 h as indicated in figure and SK1 activity was measured by radiolabelling. Columns, points, percentage relative to the control. Data is expressed as Mean±SE (n=3). * p<0.05 versus control, ** p<0.05 versus free drug treatment (DTX+FTY). (E) Cytotoxicity of free drugs was assessed using the MTT assay (48 hr: dark shading; 72 hr: light shading; 96 hr: no shading); the final two columns showing sequential administration of docetaxel on day 1 (D1) followed by FTY720 on day 2 (D2), or administration of FTY720 on day 1 (D1) followed by docetaxel on day 2 (D2).
SK1 assay was performed using radiolabelling as previously described (Alshaker et al (2014), above, plus: Alshaker, H. et al. Sphingosine kinase 1 contributes to leptin-induced STAT3 phosphorylation through IL-6/gp130 transactivation in oestrogen receptor-negative breast cancer. Breast Cancer Res Treat 149, 59-67, doi:10.1007/s10549-014-3228-8 (2015); and Pchejetski, D. et al. The involvement of sphingosine kinase 1 in LPS-induced Toll-like receptor 4-mediated accumulation of HIF-1alpha protein, activation of ASK1 and production of the pro-inflammatory cytokine IL-6. Immunol Cell Biol 89, 268-274, doi:10.1038/icb.2010.91 (2011)), in conditions favouring SK1 activity and inhibiting SK2 activity.

[4] = system: MDA-MB-231 metastatic triple negative breast cancer cell; experiment: MDA-MB-231 breast tumour xenograft, free agents, tumour weight; type: in vivo, Balb/c nude mice; settings: 5 mg/kg single agent, breast tumours
Protocol: as §1, §2, §3

T1 sequence (Q9NYA1 whole entry): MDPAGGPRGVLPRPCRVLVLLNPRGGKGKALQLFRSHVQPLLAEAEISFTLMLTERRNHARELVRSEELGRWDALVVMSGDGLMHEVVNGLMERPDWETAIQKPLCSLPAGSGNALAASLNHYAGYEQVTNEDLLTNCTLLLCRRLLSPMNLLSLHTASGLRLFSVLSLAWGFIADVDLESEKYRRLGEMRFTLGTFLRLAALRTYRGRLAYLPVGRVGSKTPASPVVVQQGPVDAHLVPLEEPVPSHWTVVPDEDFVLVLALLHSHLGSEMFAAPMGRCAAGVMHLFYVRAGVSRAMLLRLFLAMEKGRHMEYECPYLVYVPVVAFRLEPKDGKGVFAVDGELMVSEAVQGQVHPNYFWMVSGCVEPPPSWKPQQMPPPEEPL

Compound: CCCCCCCCc1ccc(CCC(N)(CO)CO)cc1 [FTY720, fingolimod]
white cell count [1]: significantly reduced white cell count | half-life [2]: 140 to 220 h

Compound: Oc1ccc(Nc2nc(-c3ccc(Cl)cc3)cs2)cc1 [SK1-II]
tumour weight reduction, individual drug treatment [3]: did not reduce the tumour weight significantly

SK1 activity (SK1): insignificant increase
Compound: CC(=O)O[C@@]12CO[C@@H]1C[C@H](O)[C@@]1(C)C(=O)[C@H](O)C3=C(C)[C@@H](OC(=O)[C@H](O)[C@@H](NC(=O)OC(C)(C)C)c4ccccc4)C[C@@](O)([C@@H](OC(=O)c4ccccc4)[C@H]21)C3(C)C [docetaxel]
tumour weight reduction, individual drug treatment [3]: did not reduce the tumour weight significantly | tumour weight reduction, individual drug treatment [4]: did not reduce the tumour weight significantly | circulation half-life [2]: ~17 h
